This is an account of results in PMC9354932, “Heme Interferes With Complement Factor I-Dependent Regulation by Enhancing Alternative Pathway Activation” (Frontiers in Immunology, 2022).

This assay deals with T1, factor I (FI) (Homo sapiens, UniProt P05156).
T1 construct: gene CFI; purified human complement factor I, commercial (CompTech); mature heavy and light chains of one precursor; immobilised on CM5 chip for SPR
T1 sequence (P05156 19-335): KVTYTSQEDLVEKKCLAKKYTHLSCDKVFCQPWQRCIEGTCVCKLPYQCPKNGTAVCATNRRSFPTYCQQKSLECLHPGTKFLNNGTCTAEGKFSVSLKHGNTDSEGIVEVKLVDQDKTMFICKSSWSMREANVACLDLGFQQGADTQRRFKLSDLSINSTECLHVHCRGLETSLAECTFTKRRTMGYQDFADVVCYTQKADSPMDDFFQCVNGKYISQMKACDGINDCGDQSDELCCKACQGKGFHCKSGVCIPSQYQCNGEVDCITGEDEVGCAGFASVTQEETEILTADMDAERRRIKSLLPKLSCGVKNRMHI
T1 sequence (P05156 340-583): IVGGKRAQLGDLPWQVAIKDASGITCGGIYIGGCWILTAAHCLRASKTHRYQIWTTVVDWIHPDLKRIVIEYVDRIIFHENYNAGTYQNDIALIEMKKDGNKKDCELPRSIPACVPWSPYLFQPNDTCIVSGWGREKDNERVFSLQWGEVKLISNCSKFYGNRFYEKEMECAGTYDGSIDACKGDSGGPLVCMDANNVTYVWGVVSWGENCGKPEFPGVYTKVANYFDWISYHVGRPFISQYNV
Briefly: SPR (Biacore […]), factor I immobilised on CM5 chip. The class given is binding. The settings on record: read-out: KD (apparent). A general note: Surface plasmon resonance follows binding to a sensor surface in real time, without labels.

Structures are written as SMILES. pKd: −log10 of the molar value.

By pKd is commonly meant the negative decadic logarithm of the Kd, by convention in mol/L.

For the compound `C=CC1=C(C)C2=Cc3c(C=C)c(C)c4[n]3[Fe]([Cl])[n]3c(c(C)c(CCC(=O)O)c3=CC3=NC(=C4)C(C)=C3CCC(=O)O)=CC1=N2` [heme], the pKd was 4.94.
